Test results taken from the NIST ThermoML archive (doi:10.1021/je050050p).

Experiment: xn = mol fraction of the nth substance listed
Conditions: Liquid, Vibrating tube method

CN(C)C=O [dimethylformamide] + O=C=O
Conditions	mass density [kg/m3]
342.93 K, 22027 kPa, x2 = 0.2876	930.22
342.93 K, 23002 kPa, x2 = 0.2876	931.1
342.93 K, 24027 kPa, x2 = 0.2876	932.06
342.93 K, 25009 kPa, x2 = 0.2876	932.97
342.94 K, 7029 kPa, x2 = 0.4502	913.19
342.94 K, 8013 kPa, x2 = 0.4502	914.64
342.94 K, 9011 kPa, x2 = 0.4502	916.09
342.94 K, 9055 kPa, x2 = 0.4068	917.41
342.94 K, 9984 kPa, x2 = 0.4068	918.63
342.94 K, 9999 kPa, x2 = 0.4502	917.51
342.94 K, 11025 kPa, x2 = 0.4502	918.98
342.94 K, 11061 kPa, x2 = 0.4068	920.01
342.94 K, 11996 kPa, x2 = 0.4068	921.23
342.94 K, 12004 kPa, x2 = 0.4502	920.36
342.94 K, 13007 kPa, x2 = 0.4502	921.76
342.94 K, 13050 kPa, x2 = 0.4068	922.57
342.94 K, 13993 kPa, x2 = 0.4502	923.08
342.94 K, 14076 kPa, x2 = 0.4068	923.82
342.94 K, 15011 kPa, x2 = 0.4068	925
342.94 K, 15025 kPa, x2 = 0.4502	924.49
342.94 K, 16021 kPa, x2 = 0.4068	926.2
342.94 K, 16028 kPa, x2 = 0.4502	925.84
342.94 K, 17002 kPa, x2 = 0.4502	927.13
342.94 K, 17029 kPa, x2 = 0.4068	927.42
342.94 K, 18001 kPa, x2 = 0.4068	928.58
342.94 K, 18035 kPa, x2 = 0.4502	928.51
342.94 K, 19023 kPa, x2 = 0.4502	929.75
342.94 K, 19026 kPa, x2 = 0.4068	929.79
342.94 K, 20023 kPa, x2 = 0.4502	931
342.94 K, 20073 kPa, x2 = 0.4068	931.01
342.94 K, 21008 kPa, x2 = 0.4068	932.09
342.94 K, 21013 kPa, x2 = 0.4502	932.27
342.94 K, 22005 kPa, x2 = 0.4068	933.21
342.94 K, 22036 kPa, x2 = 0.4502	933.51
342.94 K, 22992 kPa, x2 = 0.4068	934.31
342.94 K, 23032 kPa, x2 = 0.4502	934.76
342.94 K, 24003 kPa, x2 = 0.4502	935.89
342.94 K, 24049 kPa, x2 = 0.4068	935.49
342.94 K, 25041 kPa, x2 = 0.4502	937.14
342.94 K, 25062 kPa, x2 = 0.4068	936.61
352.81 K, 11994 kPa, x2 = 0.6235	863.79
352.81 K, 13017 kPa, x2 = 0.6235	868.11
352.81 K, 14003 kPa, x2 = 0.6235	871.85
352.81 K, 15051 kPa, x2 = 0.6235	875.54
352.81 K, 16021 kPa, x2 = 0.6235	878.85
352.81 K, 17011 kPa, x2 = 0.6235	882.12
352.81 K, 18025 kPa, x2 = 0.6235	885.31
352.81 K, 19034 kPa, x2 = 0.6235	888.42
352.81 K, 20027 kPa, x2 = 0.6235	891.37
352.81 K, 20969 kPa, x2 = 0.6235	894.02
352.81 K, 22044 kPa, x2 = 0.6235	897.02
352.81 K, 22987 kPa, x2 = 0.6235	899.54
352.81 K, 24010 kPa, x2 = 0.6235	902.21
352.81 K, 25062 kPa, x2 = 0.6235	904.9
352.86 K, 16031 kPa, x2 = 0.8091	799.4
352.86 K, 17002 kPa, x2 = 0.8091	806.61
352.86 K, 17024 kPa, x2 = 0.9311	684.5
352.86 K, 18005 kPa, x2 = 0.9311	702.67
352.86 K, 18047 kPa, x2 = 0.8091	814.2
352.86 K, 19028 kPa, x2 = 0.9311	718.94
352.86 K, 19050 kPa, x2 = 0.8091	820.88
352.86 K, 20001 kPa, x2 = 0.9311	732.41
352.86 K, 20005 kPa, x2 = 0.8091	827.13
352.86 K, 21006 kPa, x2 = 0.9311	744.94
352.86 K, 21045 kPa, x2 = 0.8091	833.27
352.86 K, 22024 kPa, x2 = 0.9311	756.39
352.86 K, 22052 kPa, x2 = 0.8091	839.08
352.86 K, 23012 kPa, x2 = 0.9311	766.47
352.86 K, 23029 kPa, x2 = 0.8091	844.25
352.86 K, 23999 kPa, x2 = 0.9311	775.83
352.86 K, 24015 kPa, x2 = 0.8091	849.31
352.86 K, 25019 kPa, x2 = 0.9311	784.81
352.86 K, 25051 kPa, x2 = 0.8091	854.32
352.87 K, 7031 kPa, x2 = 0.2876	902.49
352.87 K, 8016 kPa, x2 = 0.2876	903.63
352.87 K, 9024 kPa, x2 = 0.2876	904.79
352.87 K, 10008 kPa, x2 = 0.4268	903.63
352.87 K, 10027 kPa, x2 = 0.2876	905.96
352.87 K, 11005 kPa, x2 = 0.4268	905.13
352.87 K, 11011 kPa, x2 = 0.2876	907.05
352.87 K, 12022 kPa, x2 = 0.2876	908.2
352.87 K, 12055 kPa, x2 = 0.4268	906.66
352.87 K, 13022 kPa, x2 = 0.2876	909.31
352.87 K, 13027 kPa, x2 = 0.4268	908.06
352.87 K, 13995 kPa, x2 = 0.4268	909.43
352.87 K, 14004 kPa, x2 = 0.2876	910.39
352.87 K, 15002 kPa, x2 = 0.4268	910.84
352.87 K, 15013 kPa, x2 = 0.2876	911.48
352.87 K, 16013 kPa, x2 = 0.2876	912.56
352.87 K, 16029 kPa, x2 = 0.4268	912.27
352.87 K, 17030 kPa, x2 = 0.4268	913.63
352.87 K, 17044 kPa, x2 = 0.2876	913.64
352.87 K, 18010 kPa, x2 = 0.4268	914.96
352.87 K, 18012 kPa, x2 = 0.2876	914.66
352.87 K, 19003 kPa, x2 = 0.4268	916.29
352.87 K, 19015 kPa, x2 = 0.2876	915.7
352.87 K, 20024 kPa, x2 = 0.2876	916.74
352.87 K, 20032 kPa, x2 = 0.4268	917.62
352.87 K, 21004 kPa, x2 = 0.2876	917.74
352.87 K, 21047 kPa, x2 = 0.4268	918.93
352.87 K, 22005 kPa, x2 = 0.4268	920.15
352.87 K, 22030 kPa, x2 = 0.2876	918.79
352.87 K, 23001 kPa, x2 = 0.4268	921.41
352.87 K, 23027 kPa, x2 = 0.2876	919.77
352.87 K, 24014 kPa, x2 = 0.4268	922.68
352.87 K, 24021 kPa, x2 = 0.2876	920.77
352.87 K, 25022 kPa, x2 = 0.2876	921.74
352.87 K, 25024 kPa, x2 = 0.4268	923.93
362.68 K, 13997 kPa, x2 = 0.6235	842.98
362.68 K, 15019 kPa, x2 = 0.6235	847.62
362.68 K, 16021 kPa, x2 = 0.6235	851.83
362.68 K, 16992 kPa, x2 = 0.6235	855.82
362.68 K, 18022 kPa, x2 = 0.6235	859.78
362.68 K, 19000 kPa, x2 = 0.6235	863.4
362.68 K, 20047 kPa, x2 = 0.6235	867.1
362.68 K, 21057 kPa, x2 = 0.6235	870.49
362.68 K, 22005 kPa, x2 = 0.6235	873.58
362.68 K, 22981 kPa, x2 = 0.6235	876.69
362.68 K, 24005 kPa, x2 = 0.6235	879.78
362.68 K, 24998 kPa, x2 = 0.6235	882.71
362.73 K, 18005 kPa, x2 = 0.9311	641.86
362.73 K, 19024 kPa, x2 = 0.9311	662.81
362.73 K, 20021 kPa, x2 = 0.9311	680.44
362.73 K, 21028 kPa, x2 = 0.9311	696.02
362.73 K, 22008 kPa, x2 = 0.9311	709.54
362.73 K, 23017 kPa, x2 = 0.9311	722.12
362.73 K, 24029 kPa, x2 = 0.9311	733.65
362.73 K, 25019 kPa, x2 = 0.9311	744.01
362.75 K, 8032 kPa, x2 = 0.2876	891.2
362.75 K, 9018 kPa, x2 = 0.2876	892.47
362.75 K, 9986 kPa, x2 = 0.2876	893.65
362.75 K, 10994 kPa, x2 = 0.2876	894.89
362.75 K, 11002 kPa, x2 = 0.4268	890.57
362.75 K, 12000 kPa, x2 = 0.2876	896.09
362.75 K, 12008 kPa, x2 = 0.4268	892.17
362.75 K, 13010 kPa, x2 = 0.4268	893.74
362.75 K, 13037 kPa, x2 = 0.2876	897.35
362.75 K, 14000 kPa, x2 = 0.4268	895.32
362.75 K, 14023 kPa, x2 = 0.2876	898.48
362.75 K, 15027 kPa, x2 = 0.4268	896.84
362.75 K, 15039 kPa, x2 = 0.2876	899.66
362.75 K, 16011 kPa, x2 = 0.2876	900.77
362.75 K, 16015 kPa, x2 = 0.4268	898.33
362.75 K, 17017 kPa, x2 = 0.4268	899.81
362.75 K, 17019 kPa, x2 = 0.2876	901.92
362.75 K, 18012 kPa, x2 = 0.2876	903.04
362.75 K, 18013 kPa, x2 = 0.4268	901.24
362.75 K, 19006 kPa, x2 = 0.2876	904.14
362.75 K, 19024 kPa, x2 = 0.4268	902.72
362.75 K, 20028 kPa, x2 = 0.4268	904.14
362.75 K, 20035 kPa, x2 = 0.2876	905.27
362.75 K, 20994 kPa, x2 = 0.2876	906.3
362.75 K, 21039 kPa, x2 = 0.4268	905.51
362.75 K, 22014 kPa, x2 = 0.4268	906.89
362.75 K, 22029 kPa, x2 = 0.2876	907.43
362.75 K, 23004 kPa, x2 = 0.2876	908.45
362.75 K, 23027 kPa, x2 = 0.4268	908.24
362.75 K, 24034 kPa, x2 = 0.2876	909.57
362.75 K, 25002 kPa, x2 = 0.2876	910.55
362.79 K, 18033 kPa, x2 = 0.8091	777.33
362.79 K, 19005 kPa, x2 = 0.8091	784.9
362.79 K, 20003 kPa, x2 = 0.8091	792.49
362.79 K, 21014 kPa, x2 = 0.8091	799.75
362.79 K, 22017 kPa, x2 = 0.8091	806.5
362.79 K, 23043 kPa, x2 = 0.8091	813.1
362.79 K, 24052 kPa, x2 = 0.8091	819.28
362.79 K, 25083 kPa, x2 = 0.8091	825.05
